This is an account of results in ChEMBL document CHEMBL5113377, “Development of Selective FXIa Inhibitors Based on Cyclic Peptides and Their Application for Safe Anticoagulation” (J Med Chem, 2021).

*1 amine or outer side, *2 acyl side, *3 side chain or, on linkers, in order; H or OH if unused. Where a SMILES comes first, the peptide text is derived from it. Bridges are numbered along the chain shown (N, C = ends). CH2COCH2 = O=C(C[*:1])C[*:2]; X1 = C(=C\C[*:2])/C[*:1]

For data set [1], the system named is Plasma. The data set is described as follows: Anticoagulant activity in CaCl2-activated human plasma assessed as fold prolongation of activated partial thromboplastin time at 30 uM relative to control. It is filed as functional.
Data set [2] concerns the target Coagulation factor XI (Homo sapiens, UniProt P03951). As to the kind of experiment: Inhibition of biotinylated human FXIa assessed as inhibition of p-nitroaniline release using Pyr-Pro-Arg-pNA as substrate measured for 20 mins.
Data set [3] concerns Blood. As to the kind of experiment: Anticoagulant activity in human whole blood assessed as activated clotting time. It is filed as functional.
Data set [4] can be described thus: Stability in human plasma assessed as half life at 40 uM measured for 48 hrs. It is filed as ADME, cell-free.
Data set [5] concerns Plasma. The data set is described as follows: Anticoagulant activity in rabbit plasma assessed as prolongation of activated partial thromboplastin time. The format is functional, Oryctolagus cuniculus.
The subject of data set [6] is Plasma. As to the kind of experiment: Anticoagulant activity in CaCl2-activated human plasma assessed as prolongation of activated partial thromboplastin time. The format is functional.
The species entered for data set [7] is Homo sapiens. The data set is described as follows: Selectivity for biotinylated human FXIa over beta-FXIIa (unknown origin).
The species entered for data set [8] is Homo sapiens. The data set is described as follows: Selectivity for biotinylated human FXIa over trypsin (unknown origin).
The species entered for data set [9] is Homo sapiens. The data set is described as follows: Selectivity for biotinylated human FXIa over tPA (unknown origin).
Data set [10] is filed under the species Homo sapiens. The data set is described as follows: Selectivity for biotinylated human FXIa over uPA (unknown origin).
The species named for data set [11] is Homo sapiens. As to the kind of experiment: Selectivity for biotinylated human FXIa over thrombin (unknown origin).
The species entered for data set [12] is Homo sapiens. As to the kind of experiment: Selectivity for biotinylated human FXIa over plasma kallikrein (unknown origin).
The species named for data set [13] is Homo sapiens. The data set is described as follows: Selectivity for biotinylated human FXIa over plasmin (unknown origin).
Data set [14] concerns Plasma. The data set is described as follows: Anticoagulant activity in CaCl2-activated human plasma assessed as concentration required to achieve 1.6 fold prolongation of activated partial thromboplastin time. It is filed as functional.
The test system of data set [15] is Plasma. As to the kind of experiment: Anticoagulant activity in CaCl2-activated human plasma assessed as concentration required to achieve 5.1 fold prolongation of activated partial thromboplastin time. The format is functional.
Data set [16] has as its system Blood. As to the kind of experiment: Anticoagulant activity in human blood assessed as concentration required to achieve the effects achieved with minimal therapeutic dose of UFH for prolongation of aPTT. It is filed as functional.

Coagulation factor XI, sequence (P03951 19-387 limits assumed): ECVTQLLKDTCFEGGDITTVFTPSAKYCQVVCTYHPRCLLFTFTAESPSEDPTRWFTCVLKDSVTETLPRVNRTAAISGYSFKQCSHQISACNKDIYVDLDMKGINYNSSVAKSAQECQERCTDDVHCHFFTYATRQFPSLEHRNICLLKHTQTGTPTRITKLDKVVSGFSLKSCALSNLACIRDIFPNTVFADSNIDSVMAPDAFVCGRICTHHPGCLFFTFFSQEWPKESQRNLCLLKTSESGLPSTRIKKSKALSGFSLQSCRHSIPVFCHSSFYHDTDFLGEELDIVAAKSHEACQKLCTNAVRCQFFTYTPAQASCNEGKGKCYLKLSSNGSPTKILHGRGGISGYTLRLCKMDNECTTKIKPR
Coagulation factor XI, sequence (P03951 388-625 limits assumed): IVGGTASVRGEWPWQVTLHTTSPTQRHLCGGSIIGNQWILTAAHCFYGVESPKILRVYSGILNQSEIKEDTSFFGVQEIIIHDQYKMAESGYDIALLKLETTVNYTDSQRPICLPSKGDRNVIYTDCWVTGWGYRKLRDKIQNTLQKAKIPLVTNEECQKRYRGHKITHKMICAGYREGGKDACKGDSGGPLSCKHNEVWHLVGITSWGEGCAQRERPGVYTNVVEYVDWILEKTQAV

The Ki is the dissociation constant of the complex between target and ligand, obtained from inhibition or displacement. Take `CC(C)[C@@H]1NC(=O)[C@H](CCCNC(=N)N)NC(=O)[C@H](C)NC(=O)[C@H](CC(N)=O)NC(=O)[C@H](CO)NC(=O)[C@@H](NC(=O)[C@H](CO)NC(=O)CNC(=O)[C@H](CCC(N)=O)NC(=O)[C@H](C)NC(=O)[C@H](CCCNC(=N)N)NC(=O)[C@H](CCCNC(=N)N)NC(=O)[C@@H]2CSCc3cccc(n3)CSC[C@@H](NC(=O)[C@@H](N)CO)C(=O)N2)CSCc2cccc(n2)CSC[C@@H](C(=O)N[C@@H](Cc2cnc[nH]2)C(=O)O)NC(=O)[C@H](C(C)C)NC1=O`: the “fold change (FC)” value in data set [1] stood at 1.9. Further, in data set [2], the inhibitory constant (Ki) was found to be 270 nM.
One may read the half-life as the time needed for the level to fall by half in the phase considered. As to `CC[C@H](C)[C@@H]1NC(=O)[C@H](CCCNC(=N)N)NC(=O)[C@H]([C@@H](C)O)NC(=O)[C@H](CC(C)C)NC(=O)[C@H](C)NC(=O)[C@H](CO)NC(=O)[C@@H](NC(=O)[C@H](CCCNC(=N)N)NC(=O)[C@H](CCCNC(=N)N)NC(=O)[C@@H](NC(=O)[C@H](C)NC(=O)[C@H](CCCCN)NC(=O)[C@@H]2CSCc3cccc(n3)CSC[C@@H](NC(=O)[C@@H](N)CCC(N)=O)C(=O)N2)C(C)C)CSCc2cccc(n2)CSC[C@@H](C(=O)N2CCC[C@H]2C(=O)O)NC(=O)[C@H](C(C)C)NC1=O`, the “fold change (FC)” value in data set [1] amounted to 2.7. Besides, the EC1.5 in data set [3] amounted to 12 µM. Besides, the half-life at 40 µM in data set [4] was 7.6 h. Further, the EC2 came to 2 µM in [5] and 2.9 µM in [6]. In data set [2], the Ki was 0.9 nM. The Selectivity ratio in data set [7], in [8], in [9], in data set [10], in data set [11] and in data set [12] was more than 1000 throughout. Also, the Selectivity ratio in [13] was more than 1000.
For the compound `CSCC[C@H](NC(=O)[C@H](CO)NC(=O)[C@@H](NC(=O)[C@H](CCCNC(=N)N)NC(=O)[C@H](CCC(N)=O)NC(=O)[C@H](CCC(N)=O)NC(=O)[C@@H]1CSCC(=O)CSC[C@H](NC(=O)[C@@H](N)CC(C)C)C(=O)N[C@@H](CO)C(=O)N[C@@H](CO)C(=O)N2CCC[C@H]2C(=O)N[C@@H](CO)C(=O)N1)[C@@H](C)O)C(=O)N[C@H]1CSCC(=O)CSC[C@H](C(=O)N2CCC[C@H]2C(=O)O)NC(=O)[C@H](CCCNC(=N)N)NC(=O)[C@H](Cc2ccc(O)cc2)NC1=O`, in data set [1], the “fold change (FC)” value is recorded as 1.9. Moreover, the Ki in data set [2] was 100 nM.
In the same order, the values of `CC(C)C[C@H](NC(=O)[C@@H](NC(=O)[C@@H]1CSC/C=C/CSC[C@H](NC(=O)[C@@H](N)CCC(=O)O)C(=O)N[C@@H](CCCCN)C(=O)N[C@@H]([C@@H](C)O)C(=O)N2CCC[C@H]2C(=O)N[C@@H](CCCNC(=N)N)C(=O)N[C@@H](CCC(=O)O)C(=O)N1)[C@@H](C)O)C(=O)N[C@H](C(=O)N[C@@H](CCCNC(=N)N)C(=O)N[C@H]1CSC/C=C/CSC[C@@H](C(=O)N[C@@H](CCC(=O)O)C(=O)O)NC(=O)[C@H](CO)NC(=O)[C@H](Cc2cnc[nH]2)NC(=O)[C@H](C(C)C)NC1=O)[C@@H](C)O` (H-ECKTPRECTLTRCVHSCE-OH; linker 2-8, 13-17 via X1) are 2 and 7.7 nM.
For `CSCC[C@@H]1NC(=O)CNC(=O)[C@H](CCCNC(=N)N)NC(=O)[C@@H](NC(=O)CN)CSCC(=O)CSC[C@@H](C(=O)N[C@H](C(=O)N[C@@H](CCCNC(=N)N)C(=O)N[C@H](C(=O)N[C@@H](CO)C(=O)N2CCC[C@H]2C(=O)N[C@@H](Cc2ccccc2)C(=O)N[C@H]2CSCC(=O)CSC[C@@H](C(=O)N3CCC[C@H]3C(=O)O)NC(=O)[C@H](CCCNC(=N)N)NC(=O)[C@H](C)NC2=O)[C@@H](C)O)C(C)C)NC(=O)[C@H](CO)NC1=O` (H-GCRGMSCVRTSPFCARCP-OH; linker 2-7, 14-17 via CH2COCH2), in data set [1], the “fold change (FC)” value amounted to 2.4. Further, the inhibition constant (Ki) in data set [2] was 260 nM.
On to `CC[C@H](C)[C@@H]1NC(=O)[C@H](CCCNC(=N)N)NC(=O)[C@H]([C@@H](C)O)NC(=O)[C@H](CC(C)C)NC(=O)[C@H](C)NC(=O)[C@H](CO)NC(=O)[C@@H](NC(=O)[C@H](CCCNC(=N)N)NC(=O)[C@H](CCCNC(=N)N)NC(=O)[C@@H](NC(=O)[C@H](C)NC(=O)[C@H](CCCCN)NC(=O)[C@H](CO)NC(=O)[C@H](CO)NC(=O)[C@@H](N)CCC(N)=O)C(C)C)CSSC[C@@H](C(=O)N2CCC[C@H]2C(=O)O)NC(=O)[C@H](C(C)C)NC1=O` (H-QSSKAVRRCSALTRIVCP-OH; disulfide 9-17), for which the Ki in data set [2] was determined as 2.6 nM. Moreover, the EC2 in data set [6] was found to be 4.9 µM.
Regarding `CC[C@H](C)[C@@H]1NC(=O)[C@H](CCCNC(=N)N)NC(=O)[C@H]([C@@H](C)O)NC(=O)[C@H](CC(C)C)NC(=O)[C@H](C)NC(=O)[C@H](CO)NC(=O)[C@@H](NC(=O)[C@H](CCCNC(=N)N)NC(=O)[C@H](CCCNC(=N)N)NC(=O)[C@@H](NC(=O)[C@H](C)NC(=O)[C@H](CCCNC(=N)N)NC(=O)[C@H](CO)NC(=O)[C@H](CO)NC(=O)[C@@H](N)CCC(N)=O)C(C)C)CSSC[C@@H](C(=O)N2CCC[C@H]2C(=O)O)NC(=O)[C@H](C(C)C)NC1=O` (H-QSSRAVRRCSALTRIVCP-OH; disulfide 9-17), in data set [2], the inhibition constant Ki worked out at 2.4 nM. For the same compound, in [6], the EC2 was 3.1 µM.
Turning to `CC[C@H](C)[C@@H]1NC(=O)[C@H](CCCNC(=N)N)NC(=O)[C@H]([C@@H](C)O)NC(=O)[C@H](CC(C)C)NC(=O)[C@H](C)NC(=O)[C@H](CO)NC(=O)[C@@H](NC(=O)[C@H](CCCNC(=N)N)NC(=O)[C@H](CCCNC(=N)N)NC(=O)[C@@H](NC(=O)[C@H](C)NC(=O)[C@@H](N)CCCNC(=N)N)C(C)C)CSSC[C@@H](C(=O)N2CCC[C@H]2C(=O)O)NC(=O)[C@H](C(C)C)NC1=O` (H-RAVRRCSALTRIVCP-OH; disulfide 6-14), the Ki in data set [2] amounted to 2.8 nM. Also, the EC2 in [6] was 1.5 µM. The Activity in [14] is 0.34 µM; in data set [15], 45 µM; in data set [16], 0.77 µM.
In the case of `CC(C)C[C@@H]1NC(=O)CNC(=O)[C@H](CCC(N)=O)NC(=O)[C@@H](NC(=O)[C@@H](N)CCCNC(=N)N)CSCC(=O)CSC[C@@H](C(=O)N[C@@H](Cc2ccccc2)C(=O)N[C@H](C(=O)N[C@@H](CO)C(=O)N[C@@H](CC(N)=O)C(=O)N[C@@H](CCCCN)C(=O)N[C@@H](Cc2ccc(O)cc2)C(=O)N[C@H]2CSCC(=O)CSC[C@@H](C(=O)N3CCC[C@H]3C(=O)O)NC(=O)[C@H](CCCNC(=N)N)NC(=O)[C@H](C)NC2=O)[C@@H](C)O)NC(=O)[C@H](Cc2c[nH]c3ccccc23)NC1=O` (H-RCQGLWCFTSNKYCARCP-OH; linker 2-7, 14-17 via CH2COCH2), the “fold change (FC)” value in data set [1] is listed as 3.2. For the same compound, the Ki in data set [2] was found to be 62 nM.
The matching figures for `CC[C@H](C)[C@@H]1NC(=O)[C@@H](NC(=O)[C@H](CCCNC(=N)N)NC(=O)[C@@H](NC(=O)[C@H](CC(C)C)NC(=O)[C@@H](NC(=O)[C@@H]2CSC/C=C/CSC[C@H](NC(=O)[C@@H](N)CO)C(=O)N[C@@H](CCC(=O)O)C(=O)N[C@@H]([C@@H](C)O)C(=O)N3CCC[C@H]3C(=O)N[C@@H](CCC(N)=O)C(=O)N[C@@H](C)C(=O)N2)[C@@H](C)O)[C@@H](C)O)CSC/C=C/CSC[C@@H](C(=O)N[C@@H](CC(N)=O)C(=O)O)NC(=O)[C@H](CCC(N)=O)NC(=O)[C@H]([C@@H](C)O)NC1=O` (H-SCETPQACTLTRCITQCN-OH; linker 2-8, 13-17 via X1): 1.7 and 72 nM.
The matching figures for `CC(C)C[C@@H]1NC(=O)[C@H](CCC(N)=O)NC(=O)[C@@H]2CCCN2C(=O)[C@@H](NC(=O)[C@@H](N)CO)CSC/C=C/CSC[C@@H](C(=O)N[C@@H](CO)C(=O)N[C@@H](CCCNC(=N)N)C(=O)N[C@H](C(=O)N[C@@H](CCCNC(=N)N)C(=O)N[C@H]2CSC/C=C/CSC[C@@H](C(=O)N[C@@H](CO)C(=O)O)NC(=O)[C@H](CC(=O)O)NC(=O)[C@H](CC(C)C)NC(=O)[C@H](C(C)C)NC2=O)[C@@H](C)O)NC(=O)[C@H](Cc2ccc(O)cc2)NC(=O)[C@H](CCC(=O)O)NC1=O` (H-SCPQLEYCSRTRCVLDCS-OH; linker 2-8, 13-17 via X1): 1.6 and 31 nM.
